{"source": "patent US9695164B2", "about": "“Crystalline forms of pyrroloquinoline quinone disodium salt” (Zhucheng Haotian Pharm Co., Ltd., priority 2012, dated 2017)", "type_in_all_cases": "physicochemical", "key": {"[1]": {"assay": "Hygroscopic analysis (DVS)", "details": "25° C.; for moisture absorption / hygroscopicity compared among crystal forms (overlay of DVS graphs) / hygroscopicity (in words): disodium salt; for hygroscopicity compared among crystal forms (overlay of DVS graphs): at 80% RH; for variation of hygroscopicity: conventional storage environment of 40-80 RH", "protocol": "4. Hygroscopic Analysis As indicated by DVS (FIG. 4), crystalline Form A absorbs 1.6% of moisture at 40% RH, 2.3% at 65% RH, and 2.8% at 80% RH. […] Instrument model: SMS DVS Intrinsic, 0-95% RH, Temperature: 25° C. As described above, crystal E was prepared according to Example 1 in patent literature 1. The hygroscopic analysis graph of crystal E (shown in FIG. 21) was obtained using the DVS test method and conditions used in the foregoing examples, and its hygroscopic property was compared with those of crystals A and B according to the invention (the results are shown in FIG. 22)."}, "[2]": {"assay": "Approximate solubility of PQQ disodium salt in various solvents by gravimetric analysis", "details": "for Solubility @ 25: 25° C.; for Solubility @ 50: 50° C.", "protocol": "Before preparation of the crystals, conventional methods may be employed to measure the solubility of the PQQ disodium salt in different solvents, and subsequently appropriate solvent(s) may be selected to prepare the crystals of the invention. For example, the following method may be used to measure the solubility of the PQQ disodium salt in various solvents:\n(1) At 25° C. and 50° C. respectively, about 25 mg PQQ disodium salt is stirred in 1 ml solvent to equilibrium for at least 24 h, and subsequently the solution is filtered, wherein the solvent in the liquid part is volatized under vacuum completely. The approximate solubility of the raw material in the solvent is determined by gravimetric analysis.\nGravimetric analysis: a volume (generally 0.5 mL) of the filtrate is weighed accurately and placed in a vessel which has already been dried and weighed, wherein the weight of the vessel is indicated as Mhollow. Subsequently, the total weight of the vessel and the filtrate is measured and indicated as M0. Then, the weight of the filtrate is M0−Mhollow. After the solvent is volatized completely under vacuum, the total weight is measured accurately again (indicated as M1). Then, the mass of the precipitated solid is M1−Mhollow, and the mass of the solvent is M0−M1. As such, the approximate solubility of the raw material in this solvent is: X(g)=[(M1−Mhollow)/(M0−M1)]×100(g)"}, "[3]": {"assay": "Solvent content (thermogravimetric analysis, Table 3)", "details": "disodium salt", "protocol": "2. Thermogravimetric Analysis\n(the theoretical weight loss of a water molecule is 4.6%). It is possibly a hydrate. The peak temperature of decomposition is 312.5° C.\nInstrument model: Netzsch TG 209F3\nTemperature range: 30-400° C.\nProtection gas: 15 mL/min"}, "[4]": {"assay": "Crystal form stability (Table 3)", "details": "disodium salt"}, "[5]": {"details": "solvent acetonitrile:methyl isobutyl ketone (1.1)"}, "[6]": {"details": "solvent acetonitrile:methyl tert-butyl ether (1:1), first line (r31)"}, "[7]": {"details": "solvent acetonitrile:methyl tert-butyl ether (1:1), second line (r33)"}, "[8]": {"details": "solvent acetonitrile:toluene (1:1)"}, "[9]": {"details": "solvent acetonitrile:water (1:1)"}, "[10]": {"details": "solvent methyl tert-butyl ether"}, "[11]": {"details": "solvent tetrahydrofuran:water (1:1)"}}, "note": "“Also recorded” adds a separate entry of the source. Where a name gives a salt, the structure may show the parent alone."}
{"smiles": "O=C(O)c1cc(C(=O)O)c2c(n1)C(=O)C(=O)c1cc(C(=O)O)[nH]c1-2", "note": "[crystal E, pyrroloquinoline quinone disodium salt]", "values": [{"measurement": "moisture absorption", "setting": "[1]; 40% RH", "result": 11.8, "unit": "%"}, {"measurement": "moisture absorption", "setting": "[1]; 65% RH", "result": 13.0, "unit": "%"}, {"measurement": "moisture absorption", "setting": "[1]; 80% RH", "result": 13.6, "unit": "%"}, {"measurement": "hygroscopicity compared among crystal forms (overlay of DVS graphs)", "setting": "[1]", "result": "largest hygroscopicity"}, {"measurement": "variation of hygroscopicity", "setting": "[1]", "result": "less than 2%"}, {"measurement": "hygroscopicity (in words)", "setting": "[1]", "result": "rather hygroscopic; also recorded: slightly hygroscopic"}]}
{"smiles": "O=C(O)c1cc(C(=O)O)c2c(n1)C(=O)C(=O)c1cc(C(=O)O)[nH]c1-2", "note": "[PQQ disodium salt, pyrroloquinoline quinone disodium salt]", "values": [{"measurement": "Solubility @ 25", "setting": "[2]; solvent acetone:water (1:1)", "result": 0.53, "unit": "g/100 g"}, {"measurement": "Solubility @ 50", "setting": "[2]; solvent acetone:water (1:1)", "result": 1.36, "unit": "g/100 g"}, {"measurement": "Solubility @ 25", "setting": "[2]; solvent acetone", "result": 0.13, "unit": "g/100 g"}, {"measurement": "Solubility @ 50", "setting": "[2]; solvent acetone", "result": 0.05, "unit": "g/100 g"}, {"measurement": "Solubility @ 25", "setting": "[2]; [5]", "result": 0.09, "unit": "g/100 g"}, {"measurement": "Solubility @ 50", "setting": "[2]; [5]", "result": 0.04, "unit": "g/100 g"}, {"measurement": "Solubility @ 25", "setting": "[2]; [6]", "result": 0.10, "unit": "g/100 g"}, {"measurement": "Solubility @ 50", "setting": "[2]; [6]", "result": 0.04, "unit": "g/100 g"}, {"measurement": "Solubility @ 25", "setting": "[2]; [7]", "result": 0.03, "unit": "g/100 g"}, {"measurement": "Solubility @ 50", "setting": "[2]; [7]", "result": 0.02, "unit": "g/100 g"}, {"measurement": "Solubility @ 25", "setting": "[2]; [8]", "result": 0.04, "unit": "g/100 g"}, {"measurement": "Solubility @ 50", "setting": "[2]; [8]", "result": 0.00, "unit": "g/100 g"}, {"measurement": "Solubility @ 25", "setting": "[2]; [9]", "result": 0.22, "unit": "g/100 g"}, {"measurement": "Solubility @ 50", "setting": "[2]; [9]", "result": 0.14, "unit": "g/100 g"}, {"measurement": "Solubility @ 25", "setting": "[2]; solvent acetonitrile", "result": 0.01, "unit": "g/100 g"}, {"measurement": "Solubility @ 50", "setting": "[2]; solvent acetonitrile", "result": 0.05, "unit": "g/100 g"}, {"measurement": "Solubility @ 25", "setting": "[2]; solvent chloroform", "result": 0.02, "unit": "g/100 g"}, {"measurement": "Solubility @ 50", "setting": "[2]; solvent chloroform", "result": 0.03, "unit": "g/100 g"}, {"measurement": "Solubility @ 25", "setting": "[2]; solvent dichloromethane", "result": 0.02, "unit": "g/100 g"}, {"measurement": "Solubility @ 50", "setting": "[2]; solvent dichloromethane", "result": 0.04, "unit": "g/100 g"}, {"measurement": "Solubility @ 25", "setting": "[2]; solvent ethanol:water (1:1)", "result": 0.10, "unit": "g/100 g"}, {"measurement": "Solubility @ 50", "setting": "[2]; solvent ethanol:water (1:1)", "result": 0.10, "unit": "g/100 g"}, {"measurement": "Solubility @ 25", "setting": "[2]; solvent ethanol", "result": 0.08, "unit": "g/100 g"}, {"measurement": "Solubility @ 50", "setting": "[2]; solvent ethanol", "result": 0.11, "unit": "g/100 g"}, {"measurement": "Solubility @ 25", "setting": "[2]; solvent ethyl acetate", "result": 0.11, "unit": "g/100 g"}, {"measurement": "Solubility @ 50", "setting": "[2]; solvent ethyl acetate", "result": 0.09, "unit": "g/100 g"}, {"measurement": "Solubility @ 25", "setting": "[2]; solvent ethyl ether", "result": 0.06, "unit": "g/100 g"}, {"measurement": "Solubility @ 50", "setting": "[2]; solvent ethyl ether", "result": 0.01, "unit": "g/100 g"}, {"measurement": "Solubility @ 25", "setting": "[2]; solvent heptane", "result": 0.02, "unit": "g/100 g"}, {"measurement": "Solubility @ 50", "setting": "[2]; solvent heptane", "result": 0.11, "unit": "g/100 g"}, {"measurement": "Solubility @ 25", "setting": "[2]; solvent hexane", "result": 0.06, "unit": "g/100 g"}, {"measurement": "Solubility @ 50", "setting": "[2]; solvent hexane", "result": 0.02, "unit": "g/100 g"}, {"measurement": "Solubility @ 25", "setting": "[2]; solvent isopentanol", "result": 0.02, "unit": "g/100 g"}, {"measurement": "Solubility @ 50", "setting": "[2]; solvent isopentanol", "result": 0.00, "unit": "g/100 g"}, {"measurement": "Solubility @ 25", "setting": "[2]; solvent isopropanol", "result": 0.09, "unit": "g/100 g"}, {"measurement": "Solubility @ 50", "setting": "[2]; solvent isopropanol", "result": 0.08, "unit": "g/100 g"}, {"measurement": "Solubility @ 25", "setting": "[2]; solvent isopropyl acetate", "result": 0.36, "unit": "g/100 g"}, {"measurement": "Solubility @ 50", "setting": "[2]; solvent isopropyl acetate", "result": 0.03, "unit": "g/100 g"}, {"measurement": "Solubility @ 25", "setting": "[2]; solvent methanol:water (1:1)", "result": 0.15, "unit": "g/100 g"}, {"measurement": "Solubility @ 50", "setting": "[2]; solvent methanol:water (1:1)", "result": 0.13, "unit": "g/100 g"}, {"measurement": "Solubility @ 25", "setting": "[2]; solvent methanol", "result": 0.09, "unit": "g/100 g"}, {"measurement": "Solubility @ 50", "setting": "[2]; solvent methanol", "result": 0.11, "unit": "g/100 g"}, {"measurement": "Solubility @ 25", "setting": "[2]; solvent methyl ethyl ketone", "result": 0.16, "unit": "g/100 g"}, {"measurement": "Solubility @ 50", "setting": "[2]; solvent methyl ethyl ketone", "result": 0.06, "unit": "g/100 g"}, {"measurement": "Solubility @ 25", "setting": "[2]; solvent methyl isobutyl ketone", "result": 0.05, "unit": "g/100 g"}, {"measurement": "Solubility @ 50", "setting": "[2]; solvent methyl isobutyl ketone", "result": 0.07, "unit": "g/100 g"}, {"measurement": "Solubility @ 25", "setting": "[2]; [10]", "result": 0.05, "unit": "g/100 g"}, {"measurement": "Solubility @ 50", "setting": "[2]; [10]", "result": 0.03, "unit": "g/100 g"}, {"measurement": "Solubility @ 25", "setting": "[2]; solvent nitromethane", "result": 0.01, "unit": "g/100 g"}, {"measurement": "Solubility @ 50", "setting": "[2]; solvent nitromethane", "result": 0.02, "unit": "g/100 g"}, {"measurement": "Solubility @ 25", "setting": "[2]; [11]", "result": 0.24, "unit": "g/100 g"}, {"measurement": "Solubility @ 50", "setting": "[2]; [11]", "result": 0.29, "unit": "g/100 g"}, {"measurement": "Solubility @ 25", "setting": "[2]; solvent tetrahydrofuran", "result": 0.15, "unit": "g/100 g"}, {"measurement": "Solubility @ 50", "setting": "[2]; solvent tetrahydrofuran", "result": 0.24, "unit": "g/100 g"}, {"measurement": "Solubility @ 25", "setting": "[2]; solvent toluene", "result": 0.02, "unit": "g/100 g"}, {"measurement": "Solubility @ 50", "setting": "[2]; solvent toluene", "result": 0.05, "unit": "g/100 g"}, {"measurement": "Solubility @ 25", "setting": "[2]; solvent water", "result": 0.37, "unit": "g/100 g"}, {"measurement": "Solubility @ 50", "setting": "[2]; solvent water", "result": 0.89, "unit": "g/100 g"}]}
{"smiles": "O=C(O)c1cc(C(=O)O)c2c(n1)C(=O)C(=O)c1cc(C(=O)O)[nH]c1-2", "note": "[crystalline Form C, pyrroloquinoline quinone disodium salt]", "values": [{"measurement": "moisture absorption", "setting": "[1]; 40% RH", "result": 7.8, "unit": "%"}, {"measurement": "hygroscopicity compared among crystal forms (overlay of DVS graphs)", "setting": "[1]", "result": "largest hygroscopicity"}, {"measurement": "hygroscopicity (in words)", "setting": "[1]", "result": "highly hygroscopic"}, {"measurement": "Solvent content (%)", "setting": "[3]", "result": 11.4, "unit": "%"}]}
{"smiles": "O=C(O)c1cc(C(=O)O)c2c(n1)C(=O)C(=O)c1cc(C(=O)O)[nH]c1-2", "note": "[crystalline Form A, pyrroloquinoline quinone disodium salt]", "values": [{"measurement": "Crystal form stability", "setting": "[4]", "result": "Stable"}, {"measurement": "moisture absorption", "setting": "[1]; 40% RH", "result": 1.6, "unit": "%"}, {"measurement": "hygroscopicity compared among crystal forms (overlay of DVS graphs)", "setting": "[1]", "result": "smallest hygroscopicity"}, {"measurement": "variation of hygroscopicity", "setting": "[1]", "result": "less than 2%"}, {"measurement": "hygroscopicity (in words)", "setting": "[1]", "result": "only slightly hygroscopic"}, {"measurement": "Solvent content (%)", "setting": "[3]", "result": 7.4, "unit": "%"}]}
{"smiles": "O=C(O)c1cc(C(=O)O)c2c(n1)C(=O)C(=O)c1cc(C(=O)O)[nH]c1-2", "note": "[crystalline Form B, pyrroloquinoline quinone disodium salt]", "values": [{"measurement": "Crystal form stability", "setting": "[4]", "result": "Stable"}, {"measurement": "moisture absorption", "setting": "[1]; 40% RH", "result": 7.3, "unit": "%"}, {"measurement": "hygroscopicity compared among crystal forms (overlay of DVS graphs)", "setting": "[1]", "result": "medium hygroscopicity; also recorded: relatively large hygroscopicity"}, {"measurement": "Solvent content (%)", "setting": "[3]", "result": 12.2, "unit": "%"}]}
